13 molecules from patent US10167266B2, “Sodium channel blockers” (Parion Sciences, Inc., priority 2002, dated 2019) can be followed below.

SMILES strings stand for the structures. Where a name gives a salt, the structure may show the parent alone.

System in one data set: not given
Experiment: not given
Conditions: not given
A word on the melting point: it is the temperature, or range, at which the solid turns liquid. In the case of `Cl.N=C(NCCCCc1ccc(OCC(O)C(O)CO)cc1)NC(=O)c1nc(Cl)c(N)nc1N` (stereo not shown), the melting point is 148 °C (dec.).
Same read-out and setting: the same measure for `CC(O)COc1ccc(CCCCNC(=N)NC(=O)c2nc(Cl)c(N)nc2N)cc1` (stereo not shown) (as salt: hydrochloride) [Example 18, 4-[4-(2-Hydroxypropyloxy)phenyl)]butylamidino-3,5-diamino-6-chloropyrazinecarboxamide hydrochloride]: 212 to 214 °C; for `COCCOCCOc1ccc(CCCCNC(=N)NC(=O)c2nc(Cl)c(N)nc2N)cc1` (as salt: hydrochloride) [drawing 50: n=2, 4-[4-(1,4,7-Trioxaoct-1-yl)phenyl]-butyl amidino-3,5-diamino-6-chloropyrazinecarboxamide hydrochloride]: 110 to 125 °C.
Regarding `N=C(NCCCCc1ccc(N)cc1)NC(=O)c1nc(Cl)c(N)nc1N` (as salt: hydrochloride) [drawing 60: R=NH2, N=0, 4-[4-(4-Amino)phenyl)]butylamidino-3,5-diamino-6-chloropyrazinecarboxamide hydrochloride], the melting point was in the range of 195 to 200 °C.
Turning to `N=C(NCCCCc1ccc(OCCN)cc1)NC(=O)c1nc(Cl)c(N)nc1N` (as salt: hydrochloride) [drawing 61: R=NH2, n=2, 4-[4-(2-aminoethyloxy)phenyl)butylamidino-3,5-diamino-6-chloropyrazinecarboxamide hydrochloride], the melting point is > 178 °C (dec.).
Molecule `N=C(NCCCCc1cccc(OCC(O)CO)c1)NC(=O)c1nc(Cl)c(N)nc1N` (stereo not shown) (as salt: hydrochloride) [drawing 69: R=CH2OH, Meta, 4-[3-(2-,3-Dihydroxypropyloxyl)phenyl)]butylamidino-3,5-diamino-6-chloropyrazinecarboxamide hydrochloride] gave a melting point of 91 to 93 °C.
Regarding `N=C(NCCCCc1ccccc1OCC(O)CO)NC(=O)c1nc(Cl)c(N)nc1N` (stereo not shown) (as salt: hydrochloride) [drawing 69: R=CH2OH, Ortho, 4-[2-(2-,3-Dihydroxypropyloxy)phenyl)]butylamidino-3,5-diamino-6-chloropyrazinecarboxamide hydrochloride], the melting point lay in the range of 200 to 205 °C.
Same read-out and setting: the same measure for `N=C(NCCCCc1cccc(OCCO)c1)NC(=O)c1nc(Cl)c(N)nc1N` (as salt: hydrochloride) [drawing 69: R=H, Meta, 4-[3-(2-Hydroxyethyloxy)phenyl)butylamidino-3,5-diamino-6-chloropyrazinecarboxamide hydrochloride]: 161 to 163 °C (dec.); for `N=C(NCCCCc1ccc(OCCOC2CCCCO2)cc1)NC(=O)c1nc(Cl)c(N)nc1N` (stereo not shown) [Example 20]: 161 °C.

Another data set relates to sodium channel (ENaC), canine bronchial epithelia. Description: Sodium channel blocking activity: inhibition of short circuit current (ISC) in airway epithelial monolayers in Ussing chambers. The conditions noted are these: potency in canine bronchial epithelia relative to amiloride; Example 49. Type of data set: cell-based. The protocol:
One assay used to assess mechanism of action and/or potency of the compounds of the present invention involves the determination of lumenal drug inhibition of airway epithelial sodium currents measured under short circuit current (ISC) using airway epithelial monolayers mounted in Ussing chambers. Cells obtained from freshly excised human, dog, sheep or rodent airways are seeded onto porous 0.4 micron Snapwell™ Inserts (CoStar), cultured at air-liquid interface (ALI) conditions in hormonally defined media, and assayed for sodium transport activity (ISC) while bathed in Krebs Bicarbonate Ringer (KBR) in Using chambers. All test drug additions are to the lumenal bath with half-log dose addition protocols (from 1×10^−11 M to 3×10^−5 M), and the cumulative change in ISC (inhibition) recorded. All drugs are prepared in dimethyl sulfoxide as stock solutions at a concentration of 1×10^−2 M and stored at −20° C. Eight preparations are typically run in parallel; two preparations per run incorporate amiloride and/or benzamil as positive controls. After the maximal concentration (5×10^−5 M) is administered, the lumenal bath is exchanged three times with fresh drug-free KBR solution, and the resultant ISC measured after each wash for approximately 5 minutes in duration. Reversibility is defined as the percent return to the baseline value for sodium current after the third wash. All data from the voltage clamps are collected via a computer interface and analyzed off-line.
Dose-effect relationships for all compounds are considered and analyzed by the Prism 3.0 program. IC50 values, maximal effective concentrations, and reversibility are calculated and compared to amiloride and benzamil as positive controls.
Amiloride was also tested in this assay as a positive control. The results for the compounds of the present invention are reported as fold-enhancement values relative to amiloride.
For `CCOC(=O)COc1ccc(CCCCNC(N)=NC(=O)c2nc(Cl)c(N)nc2N)cc1` [drawing 68: OCH2CO2ET, (4-{4-[N′-(3,5-Diamino-6-chloropyrazine-2-carbonyl)guanidino]butyl}phenoxy)acetic acid ethyl ester], the “Fold Amiloride*” value is recorded as 20 (1) fold.

The same data set, now with this note: potency in canine bronchial epithelia relative to amiloride; Example 50.
As for `N=C(NCCCCc1cccc(OCC(O)CO)c1)NC(=O)c1nc(Cl)c(N)nc1N` (stereo not shown) [drawing 69: R=CH2OH, Meta, 4-[3-(2-,3-Dihydroxypropyloxyl)phenyl)]butylamidino-3,5-diamino-6-chloropyrazinecarboxamide hydrochloride], the “Fold Amiloride*” value is reported as 40 (1) fold.
Still for that read-out and setting: the same measure for `N=C(NCCCCc1ccccc1OCC(O)CO)NC(=O)c1nc(Cl)c(N)nc1N` (stereo not shown) [drawing 69: R=CH2OH, Ortho, 4-[2-(2-,3-Dihydroxypropyloxy)phenyl)]butylamidino-3,5-diamino-6-chloropyrazinecarboxamide hydrochloride]: 24.0 ± 1.0 (2) fold.
Still for that read-out and setting: the same measure for `N=C(NCCCCc1cccc(OCCO)c1)NC(=O)c1nc(Cl)c(N)nc1N` [drawing 69: R=H, Meta, 4-[3-(2-Hydroxyethyloxy)phenyl)butylamidino-3,5-diamino-6-chloropyrazinecarboxamide hydrochloride]: 41.1 ± 8.5 (2) fold.
